From ChEMBL document CHEMBL1949629, “Discovery of a second generation agonist of the orphan G-protein coupled receptor GPR119 with an improved profile” (Bioorg Med Chem Lett, 2012)
≈ marks a conversion by molar mass, not a printed value. Values belong to the compound of their own block, whether it stands above or below them. Calls of active or inactive are those of the source. The rule behind the calls is not given here.

Experiments:
[1] = Solubility in 20% HPbetaCD after 24 hrs; type: physicochemical
[2] = Half life cynomolgus monkey at 25 to 400 mg administered once daily; type: ADME, organism-based, Macaca fascicularis; conditions: in vivo
[3] = AUC (0 to infinity) in Sprague-Dawley rat at 10 mg/kg, po; type: ADME, organism-based; design: time infinity, dose 10 mg/kg, route oral; conditions: plasma
Canis familiaris [4] = experiment: Toxicity in dog assessed as developmental abnormality dosed for 7 days; type: organism-based, Canis lupus familiaris; conditions: in vivo, 168 h
[5] = Permeability from basolateral to apical side of human Caco2 cells; type: ADME, cell-based; conditions: Caco-2, read-out: permeability
[6] = Half life in cynomolgus monkey at 10 mg/kg, po; conditions: in vivo
[7] = Permeability from apical to basolateral side of human Caco2 cells; type: ADME, cell-based; conditions: Caco-2, read-out: permeability
Canis familiaris [8] = species on record: Canis familiaris; experiment: Clearance in dog relative to hepatic blood flow; type: ADME, organism-based, Canis lupus familiaris, Liver; conditions: in vivo
[9] = Half life in Sprague-Dawley rat at 10 mg/kg, po; conditions: in vivo
Cynomolgus monkey [10] = experiment: Antidiabetic activity in cynomolgus monkey assessed as blood glucose AUC at 3 mg/kg administered 60 mins prior glucose challenge by oral glucose tolerance test relative to vehicle treated control; type: functional, Macaca fascicularis
Cavia porcellus [11] = experiment: Toxicity in guinea pig assessed as mean arterial blood pressure change at 5 mg/kg, iv; type: organism-based; design: dose 5 mg/kg, route intravenous; conditions: in vivo
Rattus norvegicus [12] = experiment: Antidiabetic activity in ZDF rat assessed as blood glucose AUC at 3 mg/kg administered 60 mins prior glucose challenge by oral glucose tolerance test relative to vehicle treated control; type: functional
Rattus norvegicus [13] = experiment: Drug concentration in ZDF rat measured at initiation of the oral glucose tolerance test at 3 mg/kg; type: ADME, organism-based; design: dose 3 mg/kg, route oral; conditions: in vivo
in vivo = conditions: beagle, dog, po, 7.85 mg/kg
Description: Half life in Beagle dog at 7.85 mg/kg, po

Cavia porcellus [14] = experiment: Toxicity in guinea pig assessed as change in ECG at 5 mg/kg, iv; type: organism-based; design: dose 5 mg/kg, route intravenous; conditions: in vivo
[15] = Solubility in water at pH 7; type: physicochemical; conditions: buffer
Rattus norvegicus [16] = experiment: Antidiabetic activity in fasted Sprague-Dawley rat assessed as reduction in AUC of glucose at 3 mg/kg, po administered 30 mins prior glucose challenge by oral glucose tolerance test; type: functional, organism-based; design: dose 3 mg/kg
[17] = Cmax in Sprague-Dawley rat at 10 mg/kg, po; type: ADME, organism-based; design: dose 10 mg/kg, route oral; conditions: in vivo
[18] = Elimination half life in rat; conditions: in vivo
Rattus norvegicus [19] = experiment: Drug metabolism in po dosed rat assessed as 5-methoxy-N-(2-methyl-6-(methylsulfonyl)pyridin-3-yl)-6-(piperidin-4-yloxy)pyrimidin-4-amine formation; type: ADME, organism-based; conditions: in vivo
[20] = AUC (0 to infinity) in Beagle dog at 7.85 mg/kg, po; type: ADME, organism-based, Canis lupus familiaris; design: time infinity, dose 7.85 mg/kg, route oral; conditions: plasma
[21] = Mean residence time in Sprague-Dawley rat at 10 mg/kg, po; type: ADME, organism-based; design: dose 10 mg/kg, route oral; conditions: in vivo
[22] = Clearance in iv dosed Sprague-Dawley rat; type: ADME, organism-based; conditions: in vivo
Mus musculus [23] = experiment: Antidiabetic activity in fasted C57bl/6j mouse assessed as reduction in AUC of glucose at 10 mg/kg, po administered 30 mins prior glucose challenge by oral glucose tolerance test; type: functional, organism-based; design: dose 10 mg/kg
Rattus norvegicus [24] = experiment: Drug metabolism in po dosed rat assessed as isopropyl 2-hydroxy-4-(5-methoxy-6-(2-methyl-6-(methylsulfonyl)pyridin-3-ylamino)pyrimidin-4-yloxy)piperidine-1-carboxylate formation; type: ADME, organism-based; conditions: in vivo
Rattus norvegicus [25] = experiment: Drug concentration in Sprague-Dawley rat measured at initiation of the oral glucose tolerance test at 3 mg/kg; type: ADME, organism-based; design: dose 3 mg/kg, route oral; conditions: in vivo
[26] = AUC (0 to infinity) in cynomolgus monkey at 10 mg/kg, po; type: ADME, organism-based, Macaca fascicularis; design: time infinity, dose 10 mg/kg, route oral; conditions: plasma
Rattus norvegicus [27] = species on record: Rattus norvegicus; experiment: Clearance in rat relative to hepatic blood flow; type: ADME, organism-based, Liver; conditions: in vivo
[28] = Half life in C57Bl mouse at 10 mg/kg, po; conditions: in vivo
Cavia porcellus [29] = experiment: Toxicity in guinea pig assessed as change in heart rate at 5 mg/kg, iv; type: organism-based; design: dose 5 mg/kg, route intravenous; conditions: in vivo
[30] = Mean residence time in Beagle dog at 7.85 mg/kg, po; type: ADME, organism-based, Canis lupus familiaris; design: dose 7.85 mg/kg, route oral; conditions: in vivo
Rattus norvegicus [31] = experiment: Antidiabetic activity in Sprague-Dawley rat assessed as blood glucose AUC at 3 mg/kg administered 60 mins prior glucose challenge by oral glucose tolerance test relative to vehicle treated control; type: functional
Mus musculus [32] = experiment: Antidiabetic activity in ob/ob mouse assessed as blood glucose AUC at 3 mg/kg administered 60 mins prior glucose challenge by oral glucose tolerance test relative to vehicle treated control; type: functional
Cytochrome P450 2C9 = Cytochrome P450 2C9 (Homo sapiens, UniProt P11712); experiment: Inhibition of CYP2C9; type: ADME
Chain of Cytochrome P450 2C9 (P11712 whole entry): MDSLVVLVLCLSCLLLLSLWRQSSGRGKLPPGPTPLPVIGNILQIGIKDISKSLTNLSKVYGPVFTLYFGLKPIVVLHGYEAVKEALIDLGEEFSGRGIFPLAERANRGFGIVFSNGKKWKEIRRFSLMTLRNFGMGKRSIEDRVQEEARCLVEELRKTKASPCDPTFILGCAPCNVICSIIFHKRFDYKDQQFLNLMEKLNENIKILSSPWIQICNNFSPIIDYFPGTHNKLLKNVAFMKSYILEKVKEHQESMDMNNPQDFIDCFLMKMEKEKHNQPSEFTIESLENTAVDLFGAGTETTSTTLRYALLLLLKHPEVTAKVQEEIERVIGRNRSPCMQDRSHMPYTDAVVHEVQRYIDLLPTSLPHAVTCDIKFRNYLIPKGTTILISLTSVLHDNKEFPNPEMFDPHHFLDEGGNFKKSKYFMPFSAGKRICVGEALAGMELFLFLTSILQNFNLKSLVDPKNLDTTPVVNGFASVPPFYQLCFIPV

[33] = Tmax in cynomolgus monkey at 10 mg/kg, po; type: ADME, organism-based, Macaca fascicularis; design: dose 10 mg/kg, route oral; conditions: in vivo
[34] = Mean residence time in cynomolgus monkey at 10 mg/kg, po; type: ADME, organism-based, Macaca fascicularis; design: dose 10 mg/kg, route oral; conditions: in vivo
Mus musculus [35] = experiment: Antidiabetic activity in fasted C57bl/6j mouse assessed as reduction in AUC of glucose at 1 mg/kg, po administered 30 mins prior glucose challenge by oral glucose tolerance test; type: functional, organism-based; design: dose 1 mg/kg
Rattus norvegicus [36] = experiment: Drug metabolism in po dosed rat assessed as 5-methoxy-6-(2-methyl-6-(methylsulfonyl)pyridin-3-ylamino)pyrimidin-4-ol formation; type: ADME, organism-based; conditions: in vivo
[37] = Elimination half life in dog; conditions: in vivo
Cynomolgus monkey [38] = experiment: Drug concentration in cynomolgus monkey measured at initiation of the oral glucose tolerance test at 3 mg/kg; type: ADME, organism-based, Macaca fascicularis; design: dose 3 mg/kg, route oral; conditions: in vivo
[39] = Tmax in Sprague-Dawley rat at 10 mg/kg, po; type: ADME, organism-based; design: dose 10 mg/kg, route oral; conditions: in vivo
[40] = Half life in rat liver microsomes; type: ADME, Microsome
[41] = Half life in human liver microsomes; type: ADME, Microsome
[42] = Tmax in Beagle dog at 7.85 mg/kg, po; type: ADME, organism-based, Canis lupus familiaris; design: dose 7.85 mg/kg, route oral; conditions: in vivo
[43] = Solubility in water at pH 2; type: physicochemical
[44] = target: Voltage-gated inwardly rectifying potassium channel KCNH2 (Homo sapiens, UniProt Q12809); experiment: Inhibition of human ERG
Chain of Voltage-gated inwardly rectifying potassium channel KCNH2 (Q12809 whole entry): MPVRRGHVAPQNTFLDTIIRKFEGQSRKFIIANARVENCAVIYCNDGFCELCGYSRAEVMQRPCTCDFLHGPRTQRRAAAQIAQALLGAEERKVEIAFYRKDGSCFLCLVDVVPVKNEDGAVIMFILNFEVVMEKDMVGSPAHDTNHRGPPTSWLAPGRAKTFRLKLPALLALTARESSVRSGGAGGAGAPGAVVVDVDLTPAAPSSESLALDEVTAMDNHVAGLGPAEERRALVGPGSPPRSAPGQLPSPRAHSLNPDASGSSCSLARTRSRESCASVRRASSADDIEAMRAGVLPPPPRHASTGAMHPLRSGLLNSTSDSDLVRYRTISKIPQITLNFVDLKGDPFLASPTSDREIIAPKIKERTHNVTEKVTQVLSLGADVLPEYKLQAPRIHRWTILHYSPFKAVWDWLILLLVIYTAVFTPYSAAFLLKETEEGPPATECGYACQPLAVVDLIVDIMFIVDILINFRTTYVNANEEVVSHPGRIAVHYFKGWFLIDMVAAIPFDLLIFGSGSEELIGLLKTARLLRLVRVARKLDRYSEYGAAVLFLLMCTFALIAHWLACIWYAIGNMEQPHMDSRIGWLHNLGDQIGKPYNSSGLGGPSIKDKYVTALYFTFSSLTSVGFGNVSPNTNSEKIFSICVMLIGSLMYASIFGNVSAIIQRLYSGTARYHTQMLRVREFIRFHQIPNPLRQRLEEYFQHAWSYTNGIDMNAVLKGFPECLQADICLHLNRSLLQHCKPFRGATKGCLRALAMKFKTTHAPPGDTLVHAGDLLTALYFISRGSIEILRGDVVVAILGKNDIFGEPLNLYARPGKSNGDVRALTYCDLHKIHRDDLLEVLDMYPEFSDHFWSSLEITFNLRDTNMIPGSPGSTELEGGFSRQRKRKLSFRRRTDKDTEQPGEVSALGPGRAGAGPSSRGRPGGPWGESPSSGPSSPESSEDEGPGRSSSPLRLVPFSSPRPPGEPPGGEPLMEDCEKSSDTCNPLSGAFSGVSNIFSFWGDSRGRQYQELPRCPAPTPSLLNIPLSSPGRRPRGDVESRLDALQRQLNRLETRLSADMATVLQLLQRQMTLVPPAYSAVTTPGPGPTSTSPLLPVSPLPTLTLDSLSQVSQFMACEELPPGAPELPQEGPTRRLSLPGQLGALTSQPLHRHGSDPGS

Rattus norvegicus [45] = experiment: Toxicity in rat assessed as developmental abnormality dosed for 14 days; type: organism-based; conditions: in vivo, 336 h
[46] = Cmax in C57Bl mouse at 10 mg/kg, po; type: ADME, organism-based; design: dose 10 mg/kg, route oral; conditions: in vivo
[47] = Cmax in cynomolgus monkey at 10 mg/kg, po; type: ADME, organism-based, Macaca fascicularis; design: dose 10 mg/kg, route oral; conditions: in vivo
[48] = Clearance in iv dosed Beagle dog; type: ADME, organism-based, Canis lupus familiaris; conditions: in vivo
[49] = Cmax in Beagle dog at 7.85 mg/kg, po; type: ADME, organism-based, Canis lupus familiaris; design: dose 7.85 mg/kg, route oral; conditions: in vivo
[50] = Clearance in iv dosed Cynomolgus monkey; type: ADME, organism-based, Macaca fascicularis; conditions: in vivo
[51] = Tmax in C57Bl mouse at 10 mg/kg, po; type: ADME, organism-based; design: dose 10 mg/kg, route oral; conditions: in vivo
[52] = Mean residence time in C57Bl mouse at 10 mg/kg, po; type: ADME, organism-based; design: dose 10 mg/kg, route oral; conditions: in vivo
[53] = AUC (0 to infinity) in C57Bl mouse at 10 mg/kg, po; type: ADME, organism-based; design: time infinity, dose 10 mg/kg, route oral; conditions: plasma
Rattus norvegicus [54] = experiment: Antidiabetic activity in fasted Sprague-Dawley rat assessed as reduction in AUC of glucose at 30 mg/kg, po administered 30 mins prior glucose challenge by oral glucose tolerance test; type: functional, organism-based; design: dose 30 mg/kg

- solubility at 24 h [1]: 21.3 mg/mL (≈ 47.4 mM)
Compound: Cc1c(Nc2ccc(S(C)(=O)=O)nc2)ncnc1OC1CCN(C(=O)OC(C)C)CC1

- solubility at 24 h [1]: 13.1 mg/mL (≈ 28.2 mM)
Compound: Cc1cc(S(C)(=O)=O)ncc1Oc1ncnc(OC2CCN(C(=O)OC(C)C)CC2)c1C

- solubility at 24 h [1]: 24.5 mg/mL (≈ 51.3 mM)
Compound: CCc1c(Nc2ccc(S(C)(=O)=O)nc2C)ncnc1OC1CCN(C(=O)OC(C)C)CC1

- solubility at 24 h [1]: 17.7 mg/mL (≈ 36.2 mM)
Compound: Cc1nc(S(C)(=O)=O)ccc1Nc1ncnc(OC2CCN(C(=O)OC(C)C)CC2)c1C1CC1

- solubility at 24 h [1]: 17.3 mg/mL (≈ 34.6 mM)
Compound: Cc1nc(S(C)(=O)=O)ccc1Nc1ncnc(OC2CCN(C(=O)OC(C)C)CC2)c1C(F)F

- solubility at 24 h [1]: 17 mg/mL (≈ 35.8 mM)
Compound: Cc1nc(S(C)(=O)=O)ccc1Nc1ncnc(OC2CCN(C(=O)OC(C)C)CC2)c1C#N

The next lines start with the compound.

Compound: Cc1cc(S(C)(=O)=O)ncc1Nc1ncnc(OC2CCN(C(=O)OC(C)C)CC2)c1C
- solubility at 24 h [1]: 20.4 mg/mL (≈ 44 mM)

Compound: CCOc1c(Nc2ccc(S(C)(=O)=O)nc2C)ncnc1OC1CCN(C(=O)OC(C)C)CC1
- solubility at 24 h [1]: 3.3 mg/mL (≈ 6.69 mM)

Compound: Cc1nc(S(C)(=O)=O)ccc1Nc1ncnc(OC2CCN(C(=O)OC(C)C)CC2)c1OC(F)F
- solubility at 24 h [1]: 7.8 mg/mL (≈ 15.1 mM)

Compound: CC(CO)OC(=O)N1CCC(Oc2ncnc3c2cnn3-c2ccc(S(C)(=O)=O)cc2F)CC1 (stereo not given)
- half-life [2]: 41 h

Compound: COc1c(Nc2ccc(S(C)(=O)=O)nc2C)ncnc1OC1CCN(C(=O)OC(C)C)CC1 [ADP-597]
- AUC(0-inf) [3]: 12500 ng·h/mL
- Activity (Canis familiaris [4]): Non-toxic
- Papp B→A [5]: 15 ×10⁻⁶ cm/s
- half-life [6]: 4.4 h
- Papp A→B [7]: 26 ×10⁻⁶ cm/s
- CL (Canis familiaris [8]): 16%
- half-life [9]: 4.3 h
- Activity (Cynomolgus monkey [10]): 82.8%
- Activity (Cavia porcellus [11]): Non-toxic
- Activity (Rattus norvegicus [12]): 72.8%
- Drug uptake (Rattus norvegicus [13]): 1592 ng/mL
- half-life (in vivo): 10.9 h
- Activity (Cavia porcellus [14]): Non-toxic
- solubility [15]: 0.11 mg/mL (≈ 0.229 mM)
- Activity (Rattus norvegicus [16]): Active
- Cmax [17]: 1390 ng/mL
- half-life [18]: 3 h
- Drug metabolism (Rattus norvegicus [19]): Active
- AUC(0-inf) [20]: 43700 ng·h/mL
- MRT [21]: 6.8 h
- clearance [22]: 9.67 mL/min/kg
- Activity (Mus musculus [23]): Active
- Drug metabolism (Rattus norvegicus [24]): Active
- Drug uptake (Rattus norvegicus [25]): 482 ng/mL
- AUC(0-inf) [26]: 64200 ng·h/mL
- CL (Rattus norvegicus [27]): 16%
- half-life [28]: 5.9 h
- solubility at 24 h [1]: 33 mg/mL (≈ 68.8 mM)
- Activity (Cavia porcellus [29]): Non-toxic
- MRT [30]: 10.9 h
- Activity (Rattus norvegicus [31]): 85.1%
- Activity (Mus musculus [32]): 78.4%
- IC50 (Cytochrome P450 2C9): 8 µM
- Tmax [33]: 6 h
- MRT [34]: 8.4 h
- Activity (Mus musculus [35]): Active
- Drug metabolism (Rattus norvegicus [36]): Active
- half-life [37]: 7 h
- Drug uptake (Cynomolgus monkey [38]): 112 ng/mL
- Tmax [39]: 1 h
- half-life [40]: > 1 h
- half-life [41]: > 1 h
- Tmax [42]: 8 h
- solubility [43]: 0.31 mg/mL (≈ 0.646 mM)
- IC50 [44]: > 10 µM
- Activity (Rattus norvegicus [45]): Non-toxic
- Cmax [46]: 25800 ng/mL
- Cmax [47]: 4800 ng/mL
- clearance [48]: 0.667 mL/min/kg
- Cmax [49]: 1980 ng/mL
- clearance [50]: 1.83 mL/min/kg
- Tmax [51]: 2 h
- MRT [52]: 7.9 h
- AUC(0-inf) [53]: 320000 ng·h/mL
- Activity (Rattus norvegicus [54]): Active
